Results on 21 compounds are retold here after patent US11312727B1, “Macrocyclic flu endonuclease inhibitors” (Janssen BioPharma, Inc., priority 2018, dated 2022).

Data set [1] relates to Influenza strain A549 A/WSN/33 (H1N1). Briefly: microbe, parasite or virus in culture. The data set is classed as cell-based. As to conditions: Influenza A virus, A549, 20 h, A549 cells, influenza A/WSN/33 (H1N1), 20 hours incubation; read-out: A549_A(H1N1) EC50.
A short description of the next data set: in vitro. As to conditions: human, CC50, uninfected A549 cells, CellTiter-Glo. Background: Cellular ATP, detected with luciferase, serves as a proxy for viable cell number.

Some results are limits rather than exact numbers.

By EC50 is commonly meant the concentration that produces a half-maximal response. The CC50 is the concentration that lowers cell viability or growth by half. As for `CC[C@@H]1C/C=C/COc2c(F)cccc2[C@@H](c2ccccc2)N2CN1C(=O)c1c(O)c(=O)ccn12` (single isomer, unassigned) [Compound 105AB, (2*R,9*R,*E)-9-ethyl-33-fluoro-15-hydroxy-2-phenyl-12,13,14,16-tetrahydro-11H-4-oxa-1(1,3)-pyrido[2,1-f][1,2,4]triazina-3(1,2)-benzenacyclononaphan-6-ene-14,16-dione], the half-maximal effective concentration (EC50) in data set [1] was found to be 1.9 nM. Moreover, the CC50 in the data set “in vitro” is above 200 nM.
Consider `O=C1c2c(O)c(=O)ccn2N2CN1CC/C=C/CCc1ccccc1C2c1ccccc1` (stereo not drawn) [Compound 14, (*E)-15-hydroxy-2-phenyl-12,13,14,16-tetrahydro-11H-1(1,3)-pyrido[2,1-f][1,2,4]triazina-3(1,2)-benzenacyclononaphan-6-ene-14,16-dione], for which the 50% effective concentration (EC50) in data set [1] turned out to be 48 nM. For the same compound, the 50% cytotoxic concentration (CC50) in “in vitro” was above 4000 nM.
The like results for `CC[C@@H]1/C=C/COc2c(Cl)cccc2[C@@H](c2ccccc2)N2CN1C(=O)c1c(O)c(=O)ccn12` (single isomer, unassigned) [Compound 98BB, (9*R,18*R,E)-4-chloro-9-ethyl-12-hydroxy-18-phenyl-6,9-dihydro-18H-10,17-methanobenzo[b]pyrido[1,2-f][1]oxa[5,6,9]triazacyclotridecine-11,13-dione] were, in that order, 2.1 nM and above 1000 nM.
The like results for `O=C1c2c(O)c(=O)ccn2N2CN1CCC/C=C\c1ccccc1[C@@H]2c1ccccc1` (single isomer, unassigned) [Compound 54B, (16*S,*Z)-4-hydroxy-16-phenyl-7,8,9,16-tetrahydro-6,17-methanobenzo[k]pyrido[1,2-b][1,2,5]triazacyclotridecine-3,5-dione] were, in that order, 33 nM and above 2000 nM.
Take `CC[C@@H]1/C=C/COc2c(F)cccc2[C@@H](c2ccccn2)N2CN1C(=O)c1c(O)c(=O)ccn12` (single isomer, unassigned) [Compound 154AA, (9*R,18*S,*E)-9-ethyl-4-fluoro-12-hydroxy-18-(pyridin-2-yl)-6,9-dihydro-18H-10,17-methanobenzo[b]pyrido[1,2-f][1]oxa[5,6,9]triazacyclotridecine-11,13-dione]: the EC50 in data set [1] was above 50 nM. The compound further yielded a CC50 in the data set “in vitro” above 100 nM.
The like results for `O=C1c2c(O)c(=O)ccn2N2CN1CC/C=C/COc1cc(F)c(F)c3c1[C@H]2c1ccccc1SC3` (single isomer, unassigned) [Compound 88D, (23b*S, E)-16,17-difluoro-6-hydroxy-10,13,18,23b-tetrahydro-9H-1,8-methano[1]benzothiepino[5,4,3-lm]pyrido[2,1-i][1,7,10,11]benzoxatriazacyclotetradecine-5,7-dione] were, in that order, 1 nM and above 100 nM.
In the case of `CC[C@H]1C/C=C/COc2c(F)cccc2[C@@H](c2ccccc2)N2CN1C(=O)c1c(O)c(=O)ccn12` (single isomer, unassigned) [Compound 105AA, (2*R,9*S,*E)-9-ethyl-33-fluoro-15-hydroxy-2-phenyl-12,13,14,16-tetrahydro-11H-4-oxa-1(1,3)-pyrido[2,1-f][1,2,4]triazina-3(1,2)-benzenacyclononaphan-6-ene-14,16-dione], the half-maximal effective concentration (EC50) in data set [1] was determined as 2.2 nM. In the data set “in vitro”, this compound had a CC50 above 200 nM.
With `O=C1c2c(O)c(=O)ccn2N2CN1C[C@@H]1C[C@H]1COc1c(F)cccc1[C@@H]2c1ccccc1` (single isomer, unassigned) [Compound 125BA, (1a*S,8*R,17a*S)-4-fluoro-14-hydroxy-8-phenyl-1a,2,17,17a-tetrahydro-1H,8H-9,16-methanobenzo[b]cyclopropa[k]pyrido[1,2-f][1]oxa[5,6,9]triazacyclotridecine-13,15-dione], the 50% effective concentration (EC50) in data set [1] was above 100 nM. Further, in “in vitro”, the cytotoxic concentration (CC50) is above 200 nM.
In the case of `O=C1c2c(O)c(=O)ccn2N2CN1CC/C=C\c1cccc3c1C2c1ccccc1CC3` (stereo not drawn) [Compound 73, (11*Z)-6-hydroxy-10,16,17,21b-tetrahydro-9H-1,8-methanobenzo[4,5]cyclohepta[1,2,3-op]pyrido[1,2-c][2,3,6]benzotriazacyclododecine-5,7-dione], the EC50 in data set [1] turned out to be 16 nM. This compound also came in with a 50% cytotoxic concentration (CC50) in “in vitro” above 2000 nM.
Take `CC[C@@H]1C/C=C/COc2c(F)cccc2[C@H](c2ccccc2)N2CN1C(=O)c1c(O)c(=O)ccn12` (single isomer, unassigned) [Compound 105BB, (2*S,9*R,*E)-9-ethyl-33-fluoro-15-hydroxy-2-phenyl-12,13,14,16-tetrahydro-11H-4-oxa-1(1,3)-pyrido[2,1-f][1,2,4]triazina-3(1,2)-benzenacyclononaphan-6-ene-14,16-dione]: the EC50 in data set [1] was above 100 nM. In addition, in “in vitro”, the CC50 was above 200 nM.
The like results for `CC[C@H]1/C=C/COc2ccccc2[C@H](c2ccccc2)N2CN1C(=O)c1c(O)c(=O)ccn12` [Compound 39AB, (9S,18S,E)-9-ethyl-12-hydroxy-18-phenyl-6,9-dihydro-18H-10,17-methanobenzo[b]pyrido[1,2-f][1]oxa[5,6,9]triazacyclotridecine-11,13-dione] were, in that order, above 1000 nM and above 2000 nM.
The like results for `C[C@H]1/C=C/COc2ccccc2[C@H](c2ccccc2)N2CN1C(=O)c1c(O)c(=O)ccn12` (single isomer, unassigned) [Compound 29BB, (9*S, 18*S, E)-12-hydroxy-9-methyl-18-phenyl-6,9-dihydro-18H-10,17-methanobenzo[b]pyrido[1,2-f][1]oxa[5,6,9]triazacyclotridecine-11,13-dione] were, in that order, 8 nM and above 2000 nM.
Regarding `O=C1c2c(O)c(=O)ccn2N2CN1C1(/C=C/COc3c(ccc(Cl)c3Cl)[C@H]2c2ccccc2)CC1` (single isomer, unassigned) [Compound 113A, (18′*R,*E)-3′,4′-dichloro-12′-hydroxy-18′-phenyl-6′H,18′H-spiro[cyclopropane-1,9′-[10,17]methanobenzo[b]pyrido[1,2-f][1]oxa[5,6,9]triazacyclotridecine]-11′,13′-dione], the EC50 in data set [1] is above 100 nM. The CC50 in the data set “in vitro” was above 200 nM.
The like results for `Cc1cccnc1[C@@H]1c2ccc(F)c(F)c2OC/C=C/C2(CCC2)N2CN1n1ccc(=O)c(O)c1C2=O` (single isomer, unassigned) [Compound 171A, (18′*S,*E)-3′,4′-difluoro-12′-hydroxy-18′-(3-methylpyridin-2-yl)-6′H,18′H-spiro[cyclobutane-1,9′-[10,17]methanobenzo[b]pyrido[1,2-f][1]oxa[5,6,9]triazacyclotridecine]-11′,13′-dione] were, in that order, 1.3 nM and above 100 nM.
As to `CC[C@H]1/C=C\COc2cc(F)c(F)c3c2[C@H](c2ccccc2SC3)N2CN1C(=O)c1c(O)c(=O)ccn12` (single isomer, unassigned) [Compound 126AA, (13*S,21a*R,Z)-13-ethyl-24,25-difluoro-16-hydroxy-6,10,13,21a-tetrahydro-7,8-(epiprop[1]en[1]yl[3]ylidene)-14,21-methanobenzo[6,7]thiepino[4,5-c]pyrido[1,2-f][1]oxa[5,6,9]triazacyclotridecine-15,17-dione], in data set [1], the EC50 is above 100 nM. Besides, the CC50 in “in vitro” was above 200 nM.
The like results for `CC[C@@H]1/C=C/COc2c(F)cccc2[C@H](c2ccccn2)N2CN1C(=O)c1c(O)c(=O)ccn12` (single isomer, unassigned) [Compound 154BA, (9*R,18*R,*E)-9-ethyl-4-fluoro-12-hydroxy-18-(pyridin-2-yl)-6,9-dihydro-18H-10,17-methanobenzo[b]pyrido[1,2-f][1]oxa[5,6,9]triazacyclotridecine-11,13-dione] were, in that order, 6.8 nM and above 100 nM.
In the case of `COC[C@@H]1/C=C/COc2c(ccc(F)c2F)[C@H](c2ccccc2)N2CN1C(=O)c1c(O)c(=O)ccn12` (single isomer, unassigned) [Compound 153AA, (9*S,18*S,*E)-3,4-difluoro-12-hydroxy-9-(methoxymethyl)-18-phenyl-6,9-dihydro-18H-10,17-methanobenzo[b]pyrido[1,2-f][1]oxa[5,6,9]triazacyclotridecine-11,13-dione], the EC50 in data set [1] was above 50 nM. In the data set “in vitro”, the CC50 was above 100 nM.
With `O=C1c2c(O)c(=O)ccn2N2CN1C/C=C\COc1ccccc1[C@@H]2c1ccc(F)cc1` (single isomer, unassigned) [Compound 47B, (18*S,Z)-18-(4-fluorophenyl)-12-hydroxy-6,9-dihydro-18H-10,17-methanobenzo[b]pyrido[1,2-f][1]oxa[5,6,9]triazacyclotridecine-11,13-dione], the EC50 in data set [1] was found to be 15 nM. Further, the cytotoxic concentration (CC50) in “in vitro” is above 200 nM.
In the case of `CC(C)[C@H]1/C=C/COc2ccccc2[C@H](c2ccccc2)N2CN1C(=O)c1c(O)c(=O)ccn12` (single isomer, unassigned) [Compound 132B, (9*S,18*S,*E)-12-hydroxy-9-isopropyl-18-phenyl-6,9-dihydro-18H-10,17-methanobenzo[b]pyrido[1,2-f][1]oxa[5,6,9]triazacyclotridecine-11,13-dione], in data set [1], the EC50 stood at 9.3 nM. In addition, the cytotoxic concentration (CC50) in the data set “in vitro” was above 200 nM.
For `O=C1c2c(O)c(=O)ccn2N2CN1C/C=C\COc1cccnc1[C@@H]2c1ccccc1` (single isomer, unassigned) [Compound 27B, (18*S,*Z)-12-hydroxy-18-phenyl-6,9-dihydro-18H-10,17-methanodipyrido[3,2-b:1′,2′-f][1]oxa[5,6,9]triazacyclotridecine-11,13-dione], in data set [1], the EC50 turned out to be 45700 nM. Moreover, the CC50 in “in vitro” is above 20000 nM.
Turning to `O=C1c2c(O)c(=O)ccn2N2CN1CCOC/C=C\c1cccc3c1[C@H]2c1ccccc1CC3` (single isomer, unassigned) [Compound 83A, (13Z,23b*R)-6-hydroxy-9,10,12,18,19,23b-hexahydro-1,8-methanobenzo[4,5]cyclohepta[1,2,3-qr]pyrido[1,2-c][9,2,3,6]benzoxatriazacyclotetradecine-5,7-dione], in data set [1], the EC50 is above 500 nM. Moreover, the CC50 in the data set “in vitro” is above 1000 nM.
